This note sets out measurements from PubChem BioAssay AID256 (DTP/NCI, 2004).

In this assay the test system is CD2F1 mice, L1210 leukemia ip, survival T/C. Briefly: NCI In Vivo Anticancer Drug Screen. Data for tumor model L1210 Leukemia (intraperitoneal) in CD2F1 (CDF1) mice. The conditions noted are these: higher = longer survival. An outline of the steps: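 Ratio T/C, where T is the treated-group value and C the vehicle-dosed control value, from mice implanted with a transplantable tumor.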

[1] abbreviates: endpoint: mean survival time, dose: 100.0 mg/kg/injection, schedule: Q04DX003 (ip), vehicle: saline.
Setting [2] is: endpoint: mean survival time, dose: 200.0 mg/kg/injection, schedule: Q04DX003 (ip), vehicle: saline.
Where [3] appears, read: endpoint: mean survival time, dose: 400.0 mg/kg/injection, schedule: Q04DX003 (ip), vehicle: saline.
[4] abbreviates: endpoint: mean survival time, dose: 100.0 mg/kg/injection, schedule: Q01DX001 (ip), vehicle: saline.
Where [5] appears, read: endpoint: mean survival time, dose: 200.0 mg/kg/injection, schedule: Q01DX001 (ip), vehicle: saline.
[6] abbreviates: endpoint: mean survival time, dose: 400.0 mg/kg/injection, schedule: Q01DX001 (ip), vehicle: saline.
[7] abbreviates: endpoint: mean survival time, dose: 6.25 mg/kg/injection, schedule: Q04DX003 (ip), vehicle: saline.
The mark [8] stands for this setting: endpoint: mean survival time, dose: 100.0 mg/kg/injection, schedule: Q04DX003 (ip), vehicle: saline with Tween-80.
The mark [9] stands for this setting: endpoint: mean survival time, dose: 200.0 mg/kg/injection, schedule: Q04DX003 (ip), vehicle: saline with Tween-80.
Where [10] appears, read: endpoint: mean survival time, dose: 400.0 mg/kg/injection, schedule: Q04DX003 (ip), vehicle: saline with Tween-80.
Where [11] appears, read: endpoint: mean survival time, dose: 100.0 mg/kg/injection, schedule: Q01DX001 (ip), vehicle: saline with Tween-80.
[12] abbreviates: endpoint: mean survival time, dose: 75.0 mg/kg/injection, schedule: Q01DX001 (ip), vehicle: saline.
Where [13] appears, read: endpoint: mean survival time, dose: 150.0 mg/kg/injection, schedule: Q01DX001 (ip), vehicle: saline.

Where “and” joins values, the source holds several entries; their conditions need not be identical. Equal entries are not always repeated. Inconclusive results and toxic doses are left out.

In the case of `COC1=C(C)C(=O)C2=C(C1=O)C1C3CC4=C(C(=O)C(OC)=C(C)C4=O)C(CNC(=O)C(C)=O)N3C(C#N)C(C2)N1C` (stereo not given), the T/C is 118 % of control (endpoint: median survival time, dose: 0.13 mg/kg/injection, schedule: Q01DX009 (ip), vehicle: Klucel (hydroxypropylcellulose) (HPC)); 110 % of control (endpoint: median survival time, dose: 0.25 mg/kg/injection, schedule: Q01DX009 (ip), vehicle: Klucel (hydroxypropylcellulose) (HPC)); 113 % of control and 108 % of control (endpoint: median survival time, dose: 0.5 mg/kg/injection, schedule: Q01DX009 (ip), vehicle: Klucel (hydroxypropylcellulose) (HPC)); 116 % of control and 112 % of control (endpoint: median survival time, dose: 1.0 mg/kg/injection, schedule: Q01DX009 (ip), vehicle: Klucel (hydroxypropylcellulose) (HPC)); 108 % of control (endpoint: median survival time, dose: 2.0 mg/kg/injection, schedule: Q01DX009 (ip), vehicle: Klucel (hydroxypropylcellulose) (HPC)); 100 % of control (endpoint: median survival time, dose: 62.5 micrograms/kg/injection, schedule: Q01DX009 (ip), vehicle: Klucel (hydroxypropylcellulose) (HPC)). Also, the T/C reads like this: (endpoint: median survival time, dose: 125.0 micrograms/kg/injection, schedule: Q01DX009 (ip), vehicle: Klucel (hydroxypropylcellulose) (HPC)) 104 % of control; (endpoint: median survival time, dose: 250.0 micrograms/kg/injection, schedule: Q01DX009 (ip), vehicle: Klucel (hydroxypropylcellulose) (HPC)) 108 % of control; (endpoint: median survival time, dose: 500.0 micrograms/kg/injection, schedule: Q01DX009 (ip), vehicle: Klucel (hydroxypropylcellulose) (HPC)) 117 % of control; (endpoint: median survival time, dose: 1000.0 micrograms/kg/injection, schedule: Q01DX009 (ip), vehicle: Klucel (hydroxypropylcellulose) (HPC)) 122 % of control.
As to `CC(=O)C(C)N(C)C` (stereo not given), the T/C is 105 % of control under setting [1], 100 % of control under setting [2] and 96 % of control under setting [3].
Turning to `O=C(Nc1cc(Cl)c(I)cc1Cl)C(F)(F)F`, the T/C by setting is: under setting [4], 102 % of control; under setting [5], 111 % of control; under setting [6], 90 % of control.
`CCN(CCO)c1ccc(N)cc1C`: the T/C is, setting by setting: (endpoint: mean survival time, dose: 1.56 mg/kg/injection, schedule: Q01DX009 (ip), vehicle: saline) 100 % of control; (endpoint: mean survival time, dose: 1.56 mg/kg/injection, schedule: Q04DX003 (ip), vehicle: saline) 101 % of control; (endpoint: mean survival time, dose: 3.13 mg/kg/injection, schedule: Q01DX009 (ip), vehicle: saline) 100 % of control; (endpoint: mean survival time, dose: 3.13 mg/kg/injection, schedule: Q04DX003 (ip), vehicle: saline) 104 % of control; (endpoint: mean survival time, dose: 6.25 mg/kg/injection, schedule: Q01DX009 (ip), vehicle: saline) 101 % of control; under setting [7], 97 % of control.
For the compound `N#C/C(=C/c1ccccc1Cl)C(N)=O`, the T/C is 103 % of control (endpoint: mean survival time, dose: 100.0 mg/kg/injection, schedule: Q01DX001 (ip), vehicle: saline sonified); 100 % of control (endpoint: mean survival time, dose: 200.0 mg/kg/injection, schedule: Q01DX001 (ip), vehicle: saline sonified); 104 % of control (endpoint: mean survival time, dose: 400.0 mg/kg/injection, schedule: Q01DX001 (ip), vehicle: saline sonified).
On to `Nc1cc(N)c([N+](=O)[O-])cc1[N+](=O)[O-]`, for which the T/C under setting [8] was 100 % of control, the T/C under setting [9] was 91 % of control and the T/C under setting [10] is 108 % of control.
Take `C(=C(\C[P+](c1ccccc1)(c1ccccc1)c1ccccc1)c1ccccc1)/c1ccccc1`: the T/C is, setting by setting: (endpoint: mean survival time, dose: 1.25 mg/kg/injection, schedule: Q01DX009 (ip), vehicle: saline with Tween-80) 104 % of control; (endpoint: mean survival time, dose: 2.5 mg/kg/injection, schedule: Q01DX009 (ip), vehicle: saline with Tween-80) 102 % of control; (endpoint: mean survival time, dose: 5.0 mg/kg/injection, schedule: Q01DX009 (ip), vehicle: saline with Tween-80) 97 % of control.
For the compound `OC(C1CCCCN1)C1CC(c2ccccc2)Nc2c(Cl)cc(Cl)cc21` (stereo not given), the T/C under setting [1] was 97 % of control.
Consider `Nc1nc(N)c(-c2ccc(Cl)cc2)c(COc2ccc(C3(CCl)OCCO3)cc2)n1`, for which the T/C (endpoint: mean survival time, dose: 25.0 mg/kg/injection, schedule: Q01DX001 (ip), vehicle: saline with Tween-80) is 94 % of control; the T/C (endpoint: mean survival time, dose: 50.0 mg/kg/injection, schedule: Q01DX001 (ip), vehicle: saline with Tween-80) is 102 % of control; the T/C under setting [11] was 100 % of control.
For `O=S1(=O)CCCN1c1ccccc1`, the T/C under setting [4] was 100 % of control, the T/C under setting [5] was 106 % of control and the T/C under setting [6] is 103 % of control.
`CCOC(=O)c1ncsc1NC(=O)NC`: the T/C runs as follows: under setting [12], 101 % of control; under setting [13], 100 % of control.
Take `CCC(C)(C)c1ccc(O)cc1`: the T/C by setting is: under setting [8], 104 % of control; under setting [9], 98 % of control.
`CN(N)C1CCCCC1`: the T/C is, setting by setting: under setting [12], 100 % of control; under setting [13], 100 % of control.
For `O=C1CC(NC(=O)C(F)(F)F)C(=O)O1` (stereo not given), the T/C was 94 % of control under setting [1], 95 % of control under setting [2] and 94 % of control under setting [3].
Take `CCCc1cccc[n+]1CC(=O)c1ccccc1`: the T/C was 106 % of control under setting [7]; 98 % of control (endpoint: mean survival time, dose: 12.5 mg/kg/injection, schedule: Q04DX003 (ip), vehicle: saline); 98 % of control (endpoint: mean survival time, dose: 25.0 mg/kg/injection, schedule: Q04DX003 (ip), vehicle: saline).
On to `CCOC(=O)/C=C/c1cccc([N+](=O)[O-])c1`, for which the T/C is 101 % of control under setting [11]; 101 % of control (endpoint: mean survival time, dose: 200.0 mg/kg/injection, schedule: Q01DX001 (ip), vehicle: saline with Tween-80); 108 % of control (endpoint: mean survival time, dose: 400.0 mg/kg/injection, schedule: Q01DX001 (ip), vehicle: saline with Tween-80).
Regarding `CCOC(=O)C1CC1C#N` (stereo not given), the T/C is 102 % of control under setting [8], 98 % of control under setting [9] and 97 % of control under setting [10].
For the compound `Nc1nc2c(c(=O)[nH]1)CC(=O)N2`, the T/C is 98 % of control (endpoint: median survival time, dose: 50.0 mg/kg/injection, schedule: Q01DX005 (ip), vehicle: saline); 100 % of control (endpoint: median survival time, dose: 100.0 mg/kg/injection, schedule: Q01DX005 (ip), vehicle: saline); 104 % of control (endpoint: median survival time, dose: 200.0 mg/kg/injection, schedule: Q01DX005 (ip), vehicle: saline).
As to `CN(C)P1(=O)NCC(C(C)(C)C)CO1` (stereo not given), the T/C is 97 % of control (endpoint: mean survival time, dose: 15.63 mg/kg/injection, schedule: Q01DX001 (ip), vehicle: water); 97 % of control (endpoint: mean survival time, dose: 31.25 mg/kg/injection, schedule: Q01DX001 (ip), vehicle: water); 97 % of control (endpoint: mean survival time, dose: 62.5 mg/kg/injection, schedule: Q01DX001 (ip), vehicle: water); 97 % of control (endpoint: mean survival time, dose: 125.0 mg/kg/injection, schedule: Q01DX001 (ip), vehicle: water); 101 % of control (endpoint: mean survival time, dose: 250.0 mg/kg/injection, schedule: Q01DX001 (ip), vehicle: water).
As for `CC([NH-])CC[NH-].O=S(=O)(O)O.[Pt+2]` (stereo not given), the T/C under setting [7] was 158 % of control.
With `COC(=O)C12OCC34C(CC5C(C)C6=CC(=O)OC6=CC5(C)C3C(O)C1O)OC(=O)C(OC(C)=O)C24` (stereo not given), the T/C reads like this: (endpoint: median survival time, dose: 0.13 mg/kg/injection, schedule: Q01DX009 (ip), vehicle: saline + alcohol) 98 % of control; (endpoint: median survival time, dose: 0.25 mg/kg/injection, schedule: Q01DX009 (ip), vehicle: saline + alcohol) 98 % of control; (endpoint: median survival time, dose: 0.5 mg/kg/injection, schedule: Q01DX009 (ip), vehicle: saline + alcohol) 98 % of control; (endpoint: median survival time, dose: 1.0 mg/kg/injection, schedule: Q01DX009 (ip), vehicle: saline + alcohol) 100 % of control; (endpoint: median survival time, dose: 2.0 mg/kg/injection, schedule: Q01DX009 (ip), vehicle: saline + alcohol) 102 % of control and 103 % of control; (endpoint: median survival time, dose: 4.0 mg/kg/injection, schedule: Q01DX009 (ip), vehicle: saline + alcohol) 102 % of control. Moreover, the T/C was 94 % of control (endpoint: median survival time, dose: 8.0 mg/kg/injection, schedule: Q01DX009 (ip), vehicle: saline + alcohol) and 96 % of control (endpoint: median survival time, dose: 16.0 mg/kg/injection, schedule: Q01DX009 (ip), vehicle: saline + alcohol).
Regarding `O=[N+]([O-])c1ccc(O)c(CCl)c1`, the T/C is, setting by setting: under setting [12], 102 % of control; under setting [13], 93 % of control; (endpoint: mean survival time, dose: 300.0 mg/kg/injection, schedule: Q01DX001 (ip), vehicle: saline) 96 % of control.
As to `NCCCC(N)C(=O)O` (stereo not given), the T/C runs as follows: (endpoint: median survival time, dose: 3.13 mg/kg/injection, schedule: Q04DX002 (ip), vehicle: saline) 111 % of control; (endpoint: median survival time, dose: 6.25 mg/kg/injection, schedule: Q04DX002 (ip), vehicle: saline) 117 % of control; (endpoint: median survival time, dose: 12.5 mg/kg/injection, schedule: Q04DX002 (ip), vehicle: saline) 108 % of control; (endpoint: median survival time, dose: 50.0 mg/kg/injection, schedule: Q04DX002 (ip), vehicle: saline) 105 % of control.
